Laboratory results published in ChEMBL document CHEMBL1146615, “Heterocyclic thrombin inhibitors. Part 2: quinoxalinone derivatives as novel, potent antithrombotic agents” (Bioorg Med Chem Lett, 2003).

Key:
[1] = Partition coefficient (logP); format: physicochemical; details: octanol/water
[2] = target: Coagulation factor X (Homo sapiens, UniProt P00742); assay: Inhibition of coagulation factor X
[3] = target: Plasminogen (Homo sapiens, UniProt P00747); assay: Inhibition of plasmin
[4] = organism: Homo sapiens; assay: Antithrombotic activity by measuring the activated partial thromboplastin time(aPPT) in human plasma; format: functional
[5] = target: Prothrombin (Homo sapiens, UniProt P00734); assay: Inhibition of human thrombin
[6] = Inhibition of bovine trypsin; parameters: species or system Bos taurus

Chain of Plasminogen (P00747 97-580 limits assumed): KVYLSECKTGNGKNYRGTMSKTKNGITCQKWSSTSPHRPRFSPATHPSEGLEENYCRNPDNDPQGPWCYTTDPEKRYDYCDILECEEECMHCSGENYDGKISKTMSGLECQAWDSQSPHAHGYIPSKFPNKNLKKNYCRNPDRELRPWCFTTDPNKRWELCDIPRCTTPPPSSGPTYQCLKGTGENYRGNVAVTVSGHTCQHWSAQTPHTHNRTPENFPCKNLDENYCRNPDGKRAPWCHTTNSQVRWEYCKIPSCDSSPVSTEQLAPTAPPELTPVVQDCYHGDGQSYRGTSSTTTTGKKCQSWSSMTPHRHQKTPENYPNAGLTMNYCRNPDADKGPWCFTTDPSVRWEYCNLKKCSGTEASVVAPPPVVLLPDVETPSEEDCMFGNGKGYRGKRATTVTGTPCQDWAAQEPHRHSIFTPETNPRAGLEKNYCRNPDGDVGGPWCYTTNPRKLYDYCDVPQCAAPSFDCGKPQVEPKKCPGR
Chain of Plasminogen (P00747 581-810 limits assumed): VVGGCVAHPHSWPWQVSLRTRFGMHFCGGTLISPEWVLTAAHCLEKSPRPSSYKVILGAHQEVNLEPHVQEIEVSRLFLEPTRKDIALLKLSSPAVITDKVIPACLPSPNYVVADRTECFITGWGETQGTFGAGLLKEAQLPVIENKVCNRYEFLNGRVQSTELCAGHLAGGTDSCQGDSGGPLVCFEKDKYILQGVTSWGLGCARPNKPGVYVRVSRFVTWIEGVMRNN
Chain of Coagulation factor X (P00742 41-179 limits assumed): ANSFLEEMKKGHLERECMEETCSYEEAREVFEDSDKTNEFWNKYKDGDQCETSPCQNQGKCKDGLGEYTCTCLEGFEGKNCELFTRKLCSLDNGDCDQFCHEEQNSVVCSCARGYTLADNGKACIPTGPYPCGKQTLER
Chain of Coagulation factor X (P00742 235-488 limits assumed): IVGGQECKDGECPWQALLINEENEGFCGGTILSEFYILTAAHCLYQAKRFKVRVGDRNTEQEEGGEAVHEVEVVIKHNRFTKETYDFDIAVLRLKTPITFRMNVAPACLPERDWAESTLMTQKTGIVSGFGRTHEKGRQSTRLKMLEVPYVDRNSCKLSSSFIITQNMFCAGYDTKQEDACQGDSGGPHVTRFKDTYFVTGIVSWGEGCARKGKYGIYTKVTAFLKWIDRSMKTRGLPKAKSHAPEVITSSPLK

IC50 [2] [µM] | IC50 [3] [µM] | IC50 [5] [µM] | SMILES | logP [1] | ED200 [4] [µM] | IC50 [6] [µM]
> 100 | – | – | Cn1c(=O)c(Cc2ccc(C(=N)N)cc2)nc2cc(C3(C(=O)O)CC3)ccc21 | – | >10 | –
12.1 | – | – | CCOC(=O)C(C)(C)c1ccc2c(C)cc(Oc3ccc(C(=N)N)cc3)nc2c1 | 1.7 | 0.94 | 2.4
46 | 69 | 0.027 | CCOC(=O)C1(c2ccc3c(c2)nc(Cc2ccc(C(=N)N)cc2)c(=O)n3C)CC1 | – | 0.67 | 0.58
0.59 | – | 0.012 | CC1CCCN(C(=O)C(C)(C)c2ccc3c(c2)nc(Cc2ccc(C(=N)N)cc2)c(=O)n3C)C1 (centres undefined) | – | 0.12 | –
31 | – | 0.068 | Cn1c(=O)c(Cc2ccc(C(=N)N)cc2)nc2cc(C(C)(C)C(=O)N3CCNCC3)ccc21 | – | 0.71 | –
1.4 | 72 | 0.013 | Cn1c(=O)c(Cc2ccc(C(=N)N)cc2)nc2cc(C3(C(=O)N4CCCC4CO)CC3)ccc21 (centres undefined) | – | 0.21 | 0.85
– | 66 | – | Cn1c(=O)c(Cc2ccc(C(=N)N)cc2)nc2cc(C3(C(=O)N4CCCC4)CC3)ccc21 | 1.5 | 0.095 | –
9.2 | > 100 | 0.016 | CN(C)C(=O)C(C)(C)c1ccc2c(c1)nc(Cc1ccc(C(=N)N)cc1)c(=O)n2C | – | 0.41 | 9.5

The remaining lines, values behind:

SMILES | IC50 [2] [µM] | IC50 [3] [µM] | IC50 [5] [µM] | logP [1] | ED200 [4] [µM] | IC50 [6] [µM]
Cn1c(=O)c(Cc2ccc(C(=N)N)cc2)nc2cc(C(C)(C)C(=O)N3CCCC3)ccc21 | 0.5 | 53 | 0.005 | 1 | 0.16 | 0.32
Cn1c(=O)c(Cc2ccc(C(=N)N)cc2)nc2cc(C(C)(C)C(=O)N3CCCCC3)ccc21 | 0.4 | 60 | 0.008 | – | 0.25 | 2.2
Cn1c(=O)c(Cc2ccc(C(=N)N)cc2)nc2cc(C3(N(C(=O)CC(=O)O)C4CCCC4)CC3)ccc21 | 3 | 36 | 0.015 | – | 0.45 | 0.55
Cn1c(=O)c(Cc2ccc(C(=N)N)cc2)nc2cc(C3(C(=O)N4CCCC4C(=O)NCC(=O)O)CC3)ccc21 (centres undefined) | > 100 | 68 | 0.19 | – | 0.91 | 2.4
CCOC(=O)C1(c2ccc3c(C)cc(Oc4ccc(C(=N)N)cc4)nc3c2)CCCC1 | – | – | 0.03 | – | – | 0.56
CCOC(=O)C(C)(C)c1ccc2c(c1)nc(Cc1ccc(C(=N)N)cc1)c(=O)n2C | 10.6 | 75 | 0.01 | 0.5 | 0.43 | 0.41
